Assay [1] concerns MCF7 breast adenocarcinoma cell line. The assay can be described thus: Cell viability assay (MTT). Format: cell-based, human. The conditions noted are these: 10^4 cells per well, 24 h with peptide, 2-fold dilution series from 100 µM in DMEM, absorbance 540 nm, mean ± std, N = 3. How it is done: (§1) 10% fetal bovine serum and 1% penicillin-streptomycin (Thermo Fisher Scientific, Waltham, MA, USA). The cultures were kept at 37°C in a 5% CO2 atmosphere incubator (Thermo Fisher Scientific, Waltham, MA, USA) and split every two to three days to new culture flasks. Cells no older than 20 passages were used for experiments.
(§2) For splitting, the cell culture media was aspirated, the cells were washed with 0.01 M phosphate buffered saline (PBS, Gibco, Thermo Fisher Scientific, Waltham, MA, USA) and trypsin-EDTA (trypsin - ethylene diamine tetraacetic acid, Fisher scientific, UK) was added to the cell layer to detach them from the flask surface. After incubation for 2 min at 37°C, cells were resuspended with an equal volume of DMEM media and centrifuged at 310 g for 5 min at 4°C. After removal of the supernatant the cells were resuspended in DMEM cell media and split into new cell culture flasks at a 1/3 to 1/5 ratio.
(§3) Determination of the anticancer peptides half effective concentration (EC50) was performed by a 3-(4,5-dimethylthiazol-2-yl)-2,5-diphenyltetrazolium bromide (MTT) assay, as described elsewhere21. Briefly, […] were seeded in each well of a 96-well plate and left to adhere and […]
(§4) sulfoxide (DMSO, Fisher Scientific, UK) at an intermediate concentration of 1 mM. The peptides were then diluted in a 2-fold dilution series starting at 100 μM with DMEM culture media. Cells were incubated with the peptide solutions for 24 h. After this time, the cell media was removed and the cells were incubated for 1 h with a 0.5 mg mL−1 MTT solution to allow enough time for formazan crystal formation (Sigma Aldrich, Steinheim, Germany). The supernatant was removed and 100 μL of DMSO were added into each well to resuspend the formazan crystals.
(§5) After manually shaking the plates to completely dissolve the crystals, the absorbance was measured at 540 nm in a Tecan Infinity M1000 spectrophotometer. The cell viability was determined based on the quantification of the color intensity in each culture well, considering the absorbance obtained by the control media without peptides as a 100% survival. The resultant sigmoidal curves were analyzed with the drc22 R package using a log-logistic model

The subject of assay [2] is A549 lung adenocarcinoma cell line. The assay can be described thus: Cell viability assay (MTT). Type of assay: cell-based, human. The conditions noted are these: MTT, 10^4 cells per well, 24 h with peptide, 2-fold dilution series from 100 µM in DMEM, absorbance 540 nm; mean ± std, N = 3; read-out: A549 EC50/µM. How it is done: as §1, §2, §3, §4, §5

Peptide text beside a SMILES is read from it. Where only a bound is given, the exact number is not on record here.

Take `CC[C@H](C)[C@H](NC(=O)[C@H](Cc1c[nH]c2ccccc12)NC(=O)[C@H](CCCNC(=N)N)NC(=O)[C@H](CCCNC(=N)N)NC(=O)[C@H](CC(C)C)NC(=O)[C@H](Cc1c[nH]c2ccccc12)NC(=O)[C@H](CC(N)=O)NC(=O)[C@H](Cc1c[nH]cn1)NC(=O)[C@@H](NC(=O)[C@H](CCCCN)NC(=O)[C@H](CCCCN)NC(=O)[C@@H](NC(=O)[C@H](Cc1c[nH]c2ccccc12)NC(=O)[C@@H](N)CCCCN)C(C)C)C(C)C)C(=O)N[C@@H](CCCCN)C(=O)N[C@H](C(=O)N[C@@H](Cc1ccccc1)C(=O)N[C@@H](CCC(=O)O)C(=O)N[C@@H](C)C(=O)N[C@@H](CC(C)C)C(=O)N[C@@H](Cc1ccccc1)C(=O)NCC(N)=O)C(C)C` [AmphiArc1] (H-KWVKKVHNWLRRWIKVFEALFG-NH2): the EC50 is 7 ± 0.5 µM in assay [1] and 18.4 ± 0.7 µM in assay [2].

Turning to `CC[C@H](C)[C@H](NC(=O)[C@H](Cc1ccc(O)cc1)NC(=O)[C@H](CC(N)=O)NC(=O)[C@H](CC(C)C)NC(=O)[C@H](CCC(=O)O)NC(=O)[C@H](CCC(=O)O)NC(=O)[C@H](CCCCN)NC(=O)[C@@H](NC(=O)[C@H](CO)NC(=O)[C@H](Cc1c[nH]cn1)NC(=O)[C@H](CCCNC(=N)N)NC(=O)[C@H](Cc1ccccc1)NC(=O)[C@H](C)N)C(C)C)C(=O)N[C@@H](CCCNC(=N)N)C(=O)N[C@@H](CCCNC(=N)N)C(=O)N[C@@H](CCCNC(=N)N)C(=O)N[C@@H](CC(C)C)C(=O)N[C@@H](CCC(=O)O)C(=O)N[C@@H](CCCNC(=N)N)C(=O)N[C@@H](Cc1ccccc1)C(=O)N1CCC[C@H]1C(=O)N[C@@H](CC(N)=O)C(=O)N[C@@H](CCCNC(=N)N)C(=O)N[C@@H](CC(C)C)C(N)=O` [AmphiArc3] (H-AFRHSVKEELNYIRRRLERFPNRL-NH2; N-terminus assumed), the EC50 in assay [1] and in assay [2] was more than 50 µM in each case.

In the case of `CC[C@H](C)[C@H](NC(=O)[C@H](CO)NC(=O)[C@H](CCC(N)=O)NC(=O)[C@H](CC(C)C)NC(=O)[C@H](CCCNC(=N)N)NC(=O)[C@H](CCCCN)NC(=O)[C@H](CCCNC(=N)N)NC(=O)[C@H](CC(C)C)NC(=O)CNC(=O)[C@H](CC(N)=O)NC(=O)[C@H](CCC(=O)O)NC(=O)[C@@H](NC(=O)[C@@H](N)CCCNC(=N)N)[C@@H](C)CC)C(=O)N[C@@H](Cc1ccc(O)cc1)C(=O)N[C@@H](CCCNC(=N)N)C(=O)N[C@@H](Cc1c[nH]cn1)C(=O)N[C@@H](CC(C)C)C(=O)N[C@@H](CCC(=O)O)C(=O)N[C@@H](CCC(=O)O)C(N)=O` [AmphiArc4] (H-RIENGLRKRLQSIYRHLEE-NH2; N-terminus assumed), the EC50 in assay [1] and in assay [2] was more than 50 µM each time.

`CC[C@H](C)[C@H](NC(=O)[C@H](Cc1c[nH]c2ccccc12)NC(=O)[C@@H](NC(=O)[C@H](CCCNC(=N)N)NC(=O)[C@@H](NC(=O)[C@H](Cc1c[nH]c2ccccc12)NC(=O)[C@@H](N)CCCCN)C(C)C)[C@@H](C)CC)C(=O)N[C@@H](CCCCN)C(=O)N[C@H](C(=O)N[C@@H](CC(C)C)C(=O)N[C@@H](CCCNC(=N)N)C(=O)NCC(=O)N[C@@H](CC(C)C)C(=O)N[C@@H](Cc1ccccc1)C(=O)N[C@H](C(=O)N[C@@H](Cc1c[nH]c2ccccc12)C(=O)N[C@H](C(=O)N[C@@H](Cc1c[nH]c2ccccc12)C(=O)N[C@@H](Cc1ccccc1)C(=O)N[C@@H](Cc1ccccc1)C(N)=O)C(C)C)C(C)C)C(C)C` [Gradient1] (H-KWVRIWIKVLRGLFVWVWFF-NH2; N-terminus assumed): the EC50 in assay [1] and in assay [2] was more than 50 µM each time.

Source of the values: publication PMC6677754, “In silico design and optimization of selective membranolytic anticancer peptides” (Scientific Reports, 2019).
